Source: BindingDB's records for doi:10.1016/j.chembiol.2009.09.012 (University of California Irvine, 2009)

Target: T1, Monoglyceride lipase (Rattus norvegicus, UniProt Q8R431)
T1 sequence (Q8R431 whole entry): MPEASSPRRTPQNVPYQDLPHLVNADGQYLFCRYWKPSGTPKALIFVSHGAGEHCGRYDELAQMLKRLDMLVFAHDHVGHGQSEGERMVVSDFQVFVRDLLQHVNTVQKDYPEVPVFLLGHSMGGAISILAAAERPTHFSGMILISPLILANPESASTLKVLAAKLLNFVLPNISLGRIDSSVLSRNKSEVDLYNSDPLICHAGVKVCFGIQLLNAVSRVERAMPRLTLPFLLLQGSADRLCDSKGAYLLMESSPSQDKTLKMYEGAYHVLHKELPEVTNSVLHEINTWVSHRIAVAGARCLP
Assay: Enzyme Assay
Conditions: 37 °C
Experimental: Purified recombinant rat MGL was prepared and enzyme activity was assayed.

SMILES | IC50
C=c1c(O)c(O)cc2c1=CC=C1[C@@]2(C)CC[C@@]2(C)[C@@H]3C[C@](C)(C(=O)O)CC[C@]3(C)CC[C@]12C | 1.6 µM
Cc1c(O)c(O)cc2c1CC=C1[C@@]2(C)CC[C@@]2(C)C3C[C@](C)(C(=O)O)CC[C@]3(C)CC[C@]12C (stereo not given in full) [Dihydrocelastrol] | 15 µM
CC(=O)Oc1cc2c(c(C)c1OC(C)=O)CC=C1[C@@]2(C)CC[C@@]2(C)[C@@H]3C[C@](C)(C(=O)O)CC[C@]3(C)CC[C@]12C [Dihydrocelastryl diacetate] | 15 µM
C=c1c(O)c(O)cc2c1=CC=C1[C@@]2(C)CC[C@@]2(C)C3C[C@](C)(C(=O)OC)CC[C@]3(C)CC[C@]12C (stereo not given in full) [Pristimerin] | 0.093 µM
COC(=O)[C@]1(C)CC[C@]2(C)CC[C@]3(C)C4=CCc5c(cc(O)c(O)c5C)[C@]4(C)CC[C@@]3(C)C2C1 (stereo not given in full) [Pristimerol] | 4 µM
